Assay results reported in patent publication US8822451B2, “Modulators of ATP-binding cassette transporters” (Vertex Pharmaceuticals Incorporated, priority 2005, dated 2014).

The compounds below were run against T1, […]F508-CFTR (Homo sapiens, UniProt P13569, DEL508-508) (assay: Assay results of Table 3: ΔF508-CFTR modulation, membrane potential optical assay (assay format not stated)). Details: efficacy range; NIH3T3 mouse fibroblasts stably expressing […]F508-CFTR (optical assays).
T1 construct: expressed in transfected cells
T1 sequence (P13569 with tags, fused parts or gaps DEL508-508): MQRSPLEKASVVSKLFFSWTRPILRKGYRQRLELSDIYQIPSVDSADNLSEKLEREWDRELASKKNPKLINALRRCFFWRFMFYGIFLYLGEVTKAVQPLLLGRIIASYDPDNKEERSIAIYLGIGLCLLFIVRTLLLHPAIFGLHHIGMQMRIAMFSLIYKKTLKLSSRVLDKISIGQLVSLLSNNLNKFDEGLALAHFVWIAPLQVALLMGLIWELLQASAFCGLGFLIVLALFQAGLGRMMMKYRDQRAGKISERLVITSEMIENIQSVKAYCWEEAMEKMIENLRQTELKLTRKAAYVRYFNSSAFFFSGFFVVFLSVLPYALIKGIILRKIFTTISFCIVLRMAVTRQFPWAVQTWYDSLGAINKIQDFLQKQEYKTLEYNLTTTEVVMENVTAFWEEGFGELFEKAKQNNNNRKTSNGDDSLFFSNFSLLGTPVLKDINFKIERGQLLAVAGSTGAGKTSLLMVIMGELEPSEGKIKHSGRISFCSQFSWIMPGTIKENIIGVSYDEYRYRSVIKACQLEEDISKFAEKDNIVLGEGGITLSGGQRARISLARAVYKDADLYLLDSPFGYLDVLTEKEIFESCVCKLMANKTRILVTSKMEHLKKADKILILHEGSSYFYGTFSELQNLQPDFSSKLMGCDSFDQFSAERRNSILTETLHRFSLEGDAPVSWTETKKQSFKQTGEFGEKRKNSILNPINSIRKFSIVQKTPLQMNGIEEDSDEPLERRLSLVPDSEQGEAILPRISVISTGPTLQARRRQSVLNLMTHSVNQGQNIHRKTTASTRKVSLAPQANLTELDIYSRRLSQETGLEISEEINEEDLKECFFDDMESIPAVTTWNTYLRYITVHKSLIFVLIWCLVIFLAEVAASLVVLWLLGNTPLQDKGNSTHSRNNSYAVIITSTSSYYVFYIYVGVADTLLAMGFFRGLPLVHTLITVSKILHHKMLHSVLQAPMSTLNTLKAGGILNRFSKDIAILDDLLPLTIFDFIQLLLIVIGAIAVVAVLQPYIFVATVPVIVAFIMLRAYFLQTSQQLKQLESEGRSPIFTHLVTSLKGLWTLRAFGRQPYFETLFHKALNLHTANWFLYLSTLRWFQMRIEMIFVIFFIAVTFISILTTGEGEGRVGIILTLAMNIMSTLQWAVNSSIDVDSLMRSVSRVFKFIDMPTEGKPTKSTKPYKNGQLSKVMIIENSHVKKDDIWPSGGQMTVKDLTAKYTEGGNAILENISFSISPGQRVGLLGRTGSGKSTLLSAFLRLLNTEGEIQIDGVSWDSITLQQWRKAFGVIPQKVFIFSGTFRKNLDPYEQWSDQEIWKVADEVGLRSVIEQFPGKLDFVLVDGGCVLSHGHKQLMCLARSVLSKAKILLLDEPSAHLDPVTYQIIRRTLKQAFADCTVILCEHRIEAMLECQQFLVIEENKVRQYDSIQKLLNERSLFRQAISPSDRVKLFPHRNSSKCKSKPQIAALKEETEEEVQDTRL
Format: cell-based
Text: A. Membrane Potential Optical Methods for Assaying […]F508-CFTR Modulation Properties of Compounds
The optical membrane potential assay utilized voltage-sensitive FRET sensors described by Gonzalez and Tsien (See, Gonzalez, J. E. and R. Y. Tsien (1995) “Voltage sensing by fluorescence resonance energy transfer in single cells” Biophys J 69(4): 1272-80, and Gonzalez, J. E. and R. Y. Tsien (1997) “Improved indicators of cell membrane potential that use fluorescence resonance energy transfer” Chem Biol 4(4): 269-77) in combination with instrumentation for measuring fluorescence changes such as the Voltage/Ion Probe Reader (VIPR) (See, Gonzalez, J. E., K. Oades, et al. (1999) “Cell-based assays and instrumentation for screening ion-channel targets” Drug Discov Today 4(9): 431-439).
These voltage sensitive assays are based on the change in fluorescence resonant energy transfer (FRET) between the membrane-soluble, voltage-sensitive dye, DiSBAC2(3), and a fluorescent phospholipid, CC2-DMPE, which is attached to the outer leaflet of the plasma membrane and acts as a FRET donor. Changes in membrane potential (Vm) cause the negatively charged DiSBAC2(3) to redistribute across the plasma membrane and the amount of energy transfer from CC2-DMPE changes accordingly. The changes in fluorescence emission were monitored using VIPR™ II, which is an integrated liquid handler and fluorescent detector designed to conduct cell-based screens in 96- or 384-well microtiter plates.
To identify small molecules that correct the trafficking defect associated with ΔF508-CFTR; a single-addition HTS assay format was developed. The cells were incubated in serum-free medium for 16 hrs at 37° C. in the presence or absence (negative control) of test compound. As a positive control, cells plated in 384-well plates were incubated for 16 hrs at 27° C. to “temperature-correct” […]F508-CFTR. The cells were subsequently rinsed 3× with Krebs Ringers solution and loaded with the voltage-sensitive dyes. To activate […]F508-CFTR, 10 µM forskolin and the CFTR potentiator, genistein (20 µM), were added along with Cl^−-free medium to each well. The addition of Cl^−-free medium promoted Cl^− efflux in response to […]F508-CFTR activation and the resulting membrane depolarization was optically monitored using the FRET-based voltage-sensor dyes.
To identify potentiators of […]F508-CFTR, a double-addition HTS assay format was developed. During the first addition, a Cl^−-free medium with or without test compound was added to each well. After 22 sec, a second addition of Cl^−-free medium containing 2-10 µM forskolin was added to activate […]F508-CFTR. The extracellular Cl^− concentration following both additions was 28 mM, which promoted Cl^− efflux in response to […]F508-CFTR activation and the resulting membrane depolarization was optically monitored using the FRET-based voltage-sensor dyes.
Bath Solution #1: (in mM) NaCl 160, KCl 4.5, CaCl2 2, MgCl2 1, HEPES 10, pH 7.4 with NaOH.
Chloride-free bath solution: Chloride salts in Bath Solution #1 are substituted with gluconate salts.
CC2-DMPE: Prepared as a 10 mM stock solution in DMSO and stored at −20° C.
DiSBAC2(3): Prepared as a 10 mM stock in DMSO and stored at −20° C.
NIH3T3 mouse fibroblasts stably expressing […]F508-CFTR are used for optical measurements of membrane potential. The cells are maintained at 37° C. in 5% CO2 and 90% humidity in Dulbecco's modified Eagle's medium supplemented with 2 mM glutamine, 10% fetal bovine serum, 1× NEAA, […]-ME, 1× pen/strep, and 25 mM HEPES in 175 cm^2 culture flasks. For all optical assays, the cells were seeded at 30,000/well in 384-well matrigel-coated plates and cultured for 2 hrs at 37° C. before culturing at 27° C. for 24 hrs for the potentiator assay. For the correction assays, the cells are cultured at 27° C. or 37° C. with and without compounds for 16-24 hoursB.

Compound	Efficacy
CCN(CC)c1nc(C(N)=O)cc(-c2ccc(C)cc2)n1 [Compound 230]	+++ (+++ corresponds to Efficacy greater than 100)
CN(C)C(=O)c1cc(-c2ccccc2)nc(N2CCCCC2)n1 [Compound 222]	++ (++ corresponds to Efficacy between 100 and 50)
NC(=O)c1cc(-c2ccccc2)nc(NCc2ccccc2)n1 [Compound 126]	++ (++ corresponds to Efficacy between 100 and 50)
CNC(=O)c1cc(-c2ccccc2)nc(NCC2CC2)n1 [Compound 41]	+ (+ corresponds to Efficacy less than 50)
CCN(CC)c1nc(C(=O)N(C)C)cc(-c2ccccc2)n1 [Compound 117]	+++ (+++ corresponds to Efficacy greater than 100)
CCCCN(CCO)c1nc(C(N)=O)cc(-c2ccccc2)n1 [Compound 19]	++ (++ corresponds to Efficacy between 100 and 50)
COc1ccc(-c2cc(C(N)=O)nc(N3CC=CCC3)n2)cc1 [Compound 129]	++ (++ corresponds to Efficacy between 100 and 50)
NC(=O)c1cc(-c2ccc3c(c2)OCO3)nc(N2CCCCC2)n1 [Compound 227]	++ (++ corresponds to Efficacy between 100 and 50)
NC(=O)c1cc(-c2ccccc2)nc(N2CCCCCCC2)n1 [Compound 86]	++ (++ corresponds to Efficacy between 100 and 50)
CCN(CC)c1nc(C(N)=O)cc(-c2cc(Cl)ccc2OC)n1 [Compound 12]	++ (++ corresponds to Efficacy between 100 and 50)
CCN(CC)c1nc(C(N)=O)cc(-c2cccc(C)c2C)n1 [Compound 120]	++ (++ corresponds to Efficacy between 100 and 50)
CCN(CC)c1nc(C(N)=O)cc(-c2ccccc2OC)n1 [Compound 110]	+++ (+++ corresponds to Efficacy greater than 100)
CN(Cc1ccco1)c1nc(C(N)=O)cc(-c2ccccc2)n1 [Compound 162]	++ (++ corresponds to Efficacy between 100 and 50)
COc1cccc(-c2cc(C(N)=O)nc(N3CCCCC3)n2)c1F [Compound 105]	+++ (+++ corresponds to Efficacy greater than 100)
CNC(=O)c1cc(-c2ccccc2)nc(N2CCCCC2)n1 [Compound 232]	+ (+ corresponds to Efficacy less than 50)
Cc1ccc(-c2cc(C(N)=O)nc(N3CCCCC3)n2)cc1 [Compound 221]	+ (+ corresponds to Efficacy less than 50)
CN(CCc1c[nH]c2ccccc12)c1nc(C(N)=O)cc(-c2ccccc2)n1 [Compound 63]	++ (++ corresponds to Efficacy between 100 and 50)
COc1ccc(-c2cc(C(N)=O)nc(N(C)C)n2)cc1 [Compound 31]	+ (+ corresponds to Efficacy less than 50)
CCN(CC)c1nc(C(N)=O)cc(-c2ccc(C)s2)n1 [Compound 21]	+++ (+++ corresponds to Efficacy greater than 100)

Compound	Efficacy
COc1ccccc1-c1cc(C(N)=O)nc(N(C)C)n1 [Compound 208]	+ (+ corresponds to Efficacy less than 50)
COc1ccc(-c2cc(C(N)=O)nc(N3CCCCC3)n2)cc1 [Compound 142]	++ (++ corresponds to Efficacy between 100 and 50)
CCN(CCO)c1nc(C(=O)NC)cc(-c2ccccc2)n1 [Compound 156]	+ (+ corresponds to Efficacy less than 50)
COc1ccc(-c2cc(C(N)=O)nc(N3CCCCC3)n2)cc1OC [Compound 124]	+++ (+++ corresponds to Efficacy greater than 100)
CCN(CC)c1nc(C(N)=O)cc(-c2c(OC)cccc2OC)n1 [Compound 108]	++ (++ corresponds to Efficacy between 100 and 50)
CN(Cc1ccccc1)c1nc(C(N)=O)cc(-c2ccccc2)n1 [Compound 164]	++ (++ corresponds to Efficacy between 100 and 50)
CCN(CC)c1nc(C(N)=O)cc(-c2cccc(F)c2)n1 [Compound 160]	++ (++ corresponds to Efficacy between 100 and 50)
Cc1cccc(-c2cc(C(N)=O)nc(N3CCCCC3)n2)c1 [Compound 32]	++ (++ corresponds to Efficacy between 100 and 50)
CN(C)C(=O)c1cc(-c2ccccc2)nc(N2CCCCCC2)n1 [Compound 1]	++ (++ corresponds to Efficacy between 100 and 50)
NC(=O)c1cc(-c2ccccc2)nc(N(Cc2ccccc2)Cc2ccccc2)n1 [Compound 92]	++ (++ corresponds to Efficacy between 100 and 50)
CCN(CCc1ccccn1)c1nc(C(N)=O)cc(-c2ccccc2)n1 [Compound 218]	+++ (+++ corresponds to Efficacy greater than 100)
NC(=O)c1cc(-c2ccc(OC(F)(F)F)cc2)nc(N2CCCCC2)n1 [Compound 182]	+ (+ corresponds to Efficacy less than 50)
C=CCNc1nc(C(N)=O)cc(-c2ccc(OC)cc2)n1 [Compound 220]	+ (+ corresponds to Efficacy less than 50)
CCN(CCO)c1nc(C(N)=O)cc(-c2cccc(OC)c2)n1 [Compound 123]	+ (+ corresponds to Efficacy less than 50)
CC(C)OC(=O)c1cccc(-c2cc(C(N)=O)nc(N3CCCCC3)n2)c1 [Compound 17]	++ (++ corresponds to Efficacy between 100 and 50)
COc1cccc(-c2cc(C(N)=O)nc(N3CCCCC3)n2)c1 [Compound 168]	+++ (+++ corresponds to Efficacy greater than 100)
CCc1ccc(-c2cc(C(N)=O)nc(N(CC)CC)n2)cc1 [Compound 116]	+++ (+++ corresponds to Efficacy greater than 100)
CCN(CC)c1nc(C(N)=O)cc(-c2ccc(S(=O)(=O)CC)cc2)n1 [Compound 155]	++ (++ corresponds to Efficacy between 100 and 50)
CN(CC#N)c1nc(C(N)=O)cc(-c2ccccc2)n1 [Compound 83]	+ (+ corresponds to Efficacy less than 50)

Same assay, conditions: potency range; NIH3T3 mouse fibroblasts stably expressing […]F508-CFTR (optical assays)

Compound	EC50 [µM]
CCN(CC)c1nc(C(N)=O)cc(-c2ccc(C)cc2)n1 [Compound 230]	1 to 5
CN(C)C(=O)c1cc(-c2ccccc2)nc(N2CCCCC2)n1 [Compound 222]	> 5
NC(=O)c1cc(-c2ccccc2)nc(NCc2ccccc2)n1 [Compound 126]	> 5
CNC(=O)c1cc(-c2ccccc2)nc(NCC2CC2)n1 [Compound 41]	> 5
CCN(CC)c1nc(C(=O)N(C)C)cc(-c2ccccc2)n1 [Compound 117]	> 5
CCCCN(CCO)c1nc(C(N)=O)cc(-c2ccccc2)n1 [Compound 19]	1 to 5
COc1ccc(-c2cc(C(N)=O)nc(N3CC=CCC3)n2)cc1 [Compound 129]	> 5
NC(=O)c1cc(-c2ccc3c(c2)OCO3)nc(N2CCCCC2)n1 [Compound 227]	> 5
NC(=O)c1cc(-c2ccccc2)nc(N2CCCCCCC2)n1 [Compound 86]	< 1
CCN(CC)c1nc(C(N)=O)cc(-c2cc(Cl)ccc2OC)n1 [Compound 12]	< 1
CCN(CC)c1nc(C(N)=O)cc(-c2cccc(C)c2C)n1 [Compound 120]	< 1
CCN(CC)c1nc(C(N)=O)cc(-c2ccccc2OC)n1 [Compound 110]	< 1
CN(Cc1ccco1)c1nc(C(N)=O)cc(-c2ccccc2)n1 [Compound 162]	1 to 5
COc1cccc(-c2cc(C(N)=O)nc(N3CCCCC3)n2)c1F [Compound 105]	> 5
CNC(=O)c1cc(-c2ccccc2)nc(N2CCCCC2)n1 [Compound 232]	1 to 5
Cc1ccc(-c2cc(C(N)=O)nc(N3CCCCC3)n2)cc1 [Compound 221]	1 to 5
CN(CCc1c[nH]c2ccccc12)c1nc(C(N)=O)cc(-c2ccccc2)n1 [Compound 63]	1 to 5
COc1ccc(-c2cc(C(N)=O)nc(N(C)C)n2)cc1 [Compound 31]	> 5
CCN(CC)c1nc(C(N)=O)cc(-c2ccc(C)s2)n1 [Compound 21]	1 to 5

Compound	EC50 [µM]
COc1ccccc1-c1cc(C(N)=O)nc(N(C)C)n1 [Compound 208]	> 5
COc1ccc(-c2cc(C(N)=O)nc(N3CCCCC3)n2)cc1 [Compound 142]	> 5
CCN(CCO)c1nc(C(=O)NC)cc(-c2ccccc2)n1 [Compound 156]	> 5
COc1ccc(-c2cc(C(N)=O)nc(N3CCCCC3)n2)cc1OC [Compound 124]	1 to 5
CCN(CC)c1nc(C(N)=O)cc(-c2c(OC)cccc2OC)n1 [Compound 108]	> 5
CN(Cc1ccccc1)c1nc(C(N)=O)cc(-c2ccccc2)n1 [Compound 164]	1 to 5
CCN(CC)c1nc(C(N)=O)cc(-c2cccc(F)c2)n1 [Compound 160]	> 5
Cc1cccc(-c2cc(C(N)=O)nc(N3CCCCC3)n2)c1 [Compound 32]	> 5
CN(C)C(=O)c1cc(-c2ccccc2)nc(N2CCCCCC2)n1 [Compound 1]	> 5
NC(=O)c1cc(-c2ccccc2)nc(N(Cc2ccccc2)Cc2ccccc2)n1 [Compound 92]	1 to 5
CCN(CCc1ccccn1)c1nc(C(N)=O)cc(-c2ccccc2)n1 [Compound 218]	1 to 5
NC(=O)c1cc(-c2ccc(OC(F)(F)F)cc2)nc(N2CCCCC2)n1 [Compound 182]	1 to 5
C=CCNc1nc(C(N)=O)cc(-c2ccc(OC)cc2)n1 [Compound 220]	> 5
CCN(CCO)c1nc(C(N)=O)cc(-c2cccc(OC)c2)n1 [Compound 123]	> 5
CC(C)OC(=O)c1cccc(-c2cc(C(N)=O)nc(N3CCCCC3)n2)c1 [Compound 17]	1 to 5
COc1cccc(-c2cc(C(N)=O)nc(N3CCCCC3)n2)c1 [Compound 168]	> 5
CCc1ccc(-c2cc(C(N)=O)nc(N(CC)CC)n2)cc1 [Compound 116]	1 to 5
CCN(CC)c1nc(C(N)=O)cc(-c2ccc(S(=O)(=O)CC)cc2)n1 [Compound 155]	> 5
CN(CC#N)c1nc(C(N)=O)cc(-c2ccccc2)n1 [Compound 83]	> 5
